Where two headings read alike, the source gives them in different places.
Experiments:
recombinant human DHODH = biological target: T1, recombinant human DHODH (Homo sapiens, UniProt Q02127); test: Inhibition assay of DHODH activity (human enzyme); type: biochemical
T1 construct: provided by Prof; M. Löffler, Marburg, Germany (gift, not purchased)
Procedure: (§1) The standard assay mixture contained 50 μM decyclo ubichinone, 100 μM dihydroorotate, 60 μM 2,6-dichloroindophenol, as well as 20 mU DHODH. The volume activity of the recombinant enzyme used was 30 U/ml. Measurements were conducted in 50 mM TrisHCl (150 mM KCl, 0,1% Triton X-100, pH. 8,0) at 30° C. in a final volume of 1 ml. The components were mixed, and the reaction was started by adding dihydroorotate. The course of reaction was followed by spectrophotometrically measuring the decrease in absorption at 600 nm for 2 min.
(§2) Inhibitory studies were conducted in a standard assay with additional variable amounts of inhibitor.
These investigations were carried out with recombinant human as well as with recombinant murine DHODH provided by Prof. M. Löffler, Marburg, Germany [M. Löffler, Chem. Biol. Interact.

DHODH = DHODH (Rattus norvegicus, UniProt Q63707); test: Inhibition assay of DHODH activity (rat enzyme, head printed 'rate'); type: biochemical
Chain of DHODH (Q63707 whole entry): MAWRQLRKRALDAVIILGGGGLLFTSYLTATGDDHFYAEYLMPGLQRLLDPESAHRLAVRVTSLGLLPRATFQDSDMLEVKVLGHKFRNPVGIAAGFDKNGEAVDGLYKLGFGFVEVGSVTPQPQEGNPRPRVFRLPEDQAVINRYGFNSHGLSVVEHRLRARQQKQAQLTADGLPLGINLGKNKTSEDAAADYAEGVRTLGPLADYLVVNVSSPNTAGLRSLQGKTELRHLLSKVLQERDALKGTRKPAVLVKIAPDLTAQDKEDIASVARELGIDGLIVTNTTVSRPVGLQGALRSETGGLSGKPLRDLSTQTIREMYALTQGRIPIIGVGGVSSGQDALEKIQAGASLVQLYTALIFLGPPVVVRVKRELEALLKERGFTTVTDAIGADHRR
Procedure: as §1, §2

[1] = recombinant human DHODH, numeric values, read-out: human IC50-Value
[2] = class symbols (in nM), read-out: rate IC50-Value
[3] = recombinant human DHODH, class symbols (in nM), read-out: human IC50-Value

T1 sequence (Q02127 whole entry): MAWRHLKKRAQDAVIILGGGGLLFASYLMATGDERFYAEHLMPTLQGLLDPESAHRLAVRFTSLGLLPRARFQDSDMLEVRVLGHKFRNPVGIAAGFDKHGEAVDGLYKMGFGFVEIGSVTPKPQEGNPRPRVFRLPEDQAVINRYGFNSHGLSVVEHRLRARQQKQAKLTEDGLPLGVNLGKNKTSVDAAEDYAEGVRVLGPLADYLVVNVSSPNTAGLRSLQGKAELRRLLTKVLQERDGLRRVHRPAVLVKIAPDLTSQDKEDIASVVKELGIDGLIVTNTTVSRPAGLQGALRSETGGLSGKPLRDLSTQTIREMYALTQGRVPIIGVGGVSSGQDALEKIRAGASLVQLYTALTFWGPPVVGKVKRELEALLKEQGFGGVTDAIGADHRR

| SMILES | IC50 (recombinant human DHODH; [3]) | further results |
| --- | --- | --- |
| O=C(O)C1=C(C(=O)Nc2cc(C(F)(F)F)cc(C(F)(F)F)c2)CCC1 [Compound 03] | – | IC50 (recombinant human DHODH; [1]): 1000 nM |
| O=C(O)C1=C(C(=O)Nc2c(F)c(F)cc(F)c2F)CCC1 [Compound 06] | – | IC50 (recombinant human DHODH; [1]): 1300 nM |
| O=C(O)C1=C(C(=O)Nc2c(F)c(F)c(C(F)(F)F)c(F)c2F)CCC1 [Compound 07] | – | IC50 (recombinant human DHODH; [1]): 1600 nM |
| O=C(O)C1=C(C(=O)Nc2ccc(F)c(F)c2F)CCC1 [Compound 10] | – | IC50 (recombinant human DHODH; [1]): 6800 nM |
| Nc1ccc(Oc2ccc(NC(=O)C3=C(C(=O)O)CCCC3)cc2)cc1 [Compound 11] | – | IC50 (recombinant human DHODH; [1]): 7000 nM |
| O=C(O)C1=C(C(=O)Nc2ccc(-c3ccccc3F)cc2)CCC1 [Compound 13] | < 800 nM | IC50 (DHODH; [2]): > 1500 nM |
| O=C(O)C1=C(C(=O)Nc2ccc(-c3ccccc3Cl)cc2)CCC1 [Compound 14] | < 800 nM | IC50 (DHODH; [2]): > 1500 nM |
| COc1ccccc1-c1ccc(NC(=O)C2=C(C(=O)O)CCC2)cc1 [Compound 15] | < 800 nM | – |
| O=C(O)C1=C(C(=O)Nc2ccc(OCc3c(F)cccc3F)cc2)CCC1 [Compound 16] | < 800 nM | – |
| CCOc1ccccc1-c1ccc(NC(=O)C2=C(C(=O)O)CCC2)c(F)c1 [Compound 17] | < 800 nM | – |
| N#Cc1cccc(-c2ccc(NC(=O)C3=C(C(=O)O)CCC3)cc2Cl)c1 [Compound 18] | < 800 nM | – |
| COc1ccc(-c2ccc(NC(=O)C3=C(C(=O)O)CCC3)cc2Cl)cc1 [Compound 19] | < 800 nM | IC50 (DHODH; [2]): < 800 nM |
| CS(=O)(=O)c1ccc(-c2ccc(NC(=O)C3=C(C(=O)O)CCC3)cc2Cl)cc1 [Compound 20] | 800 to 1500 nM | – |
| N#Cc1ccc(-c2ccc(NC(=O)C3=C(C(=O)O)CCC3)cc2Cl)cc1 [Compound 21] | 800 to 1500 nM | – |
| COc1ccc(-c2ccc(NC(=O)C3=C(C(=O)O)CCC3)cc2Cl)cn1 [Compound 22] | < 800 nM | – |
| COc1ccc(-c2ccc(NC(=O)C3=C(C(=O)O)CCC3)cc2C)cc1 [Compound 23] | < 800 nM | – |
| O=C(O)C1=C(C(=O)Nc2cc(Br)c(OCc3cc(F)ccc3F)c(Br)c2)CCC1 [Compound 24] | < 800 nM | IC50 (DHODH; [2]): > 1500 nM |
| COc1cccc(-c2ccc(NC(=O)C3=C(C(=O)O)CCC3)c(F)c2)c1 [Compound 26] | – | IC50 (DHODH): > 1500 nM |
| O=C(O)C1=C(C(=O)Nc2ccc(-c3cccc(F)c3)cc2F)CCC1 [Compound 27] | < 800 nM | – |
| O=C(O)C1=C(C(=O)Nc2ccc(-c3cccnc3)c(Cl)c2)CCC1 [Compound 28] | 800 to 1500 nM | – |

| SMILES | IC50 (recombinant human DHODH; [3]) | further results |
| --- | --- | --- |
| O=C(O)C1=C(C(=O)Nc2cc(Br)c(OCc3ccccc3)c(Br)c2)CSC1 [Compound 29] | – | IC50 (DHODH): 800 to 1500 nM; IC50 (recombinant human DHODH): < 800 nM |
| Cc1cc(-c2cc(F)c(NC(=O)C3=C(C(=O)O)CCC3)c(F)c2)ccc1F [Compound 30] | < 800 nM | – |
| COc1ccccc1-c1ccc(NC(=O)C2=C(C(=O)O)CCC2)c([N+](=O)[O-])c1 [Compound 32] | < 800 nM | – |
| COc1cc(-c2ccccc2)ccc1NC(=O)C1=C(C(=O)O)CCC1 [Compound 33] | < 800 nM | – |
| COc1cc(-c2ccccc2Cl)ccc1NC(=O)C1=C(C(=O)O)CCC1 [Compound 34] | < 800 nM | – |
| COc1cc(-c2cccc(OC(F)(F)F)c2)ccc1NC(=O)C1=C(C(=O)O)CCC1 [Compound 35] | < 800 nM | – |
| COc1cc(-c2ccccc2F)ccc1NC(=O)C1=C(C(=O)O)CCC1 [Compound 36] | < 800 nM | – |
| COc1ccc(-c2ccc(NC(=O)C3=C(C(=O)O)CCC3)c(OC)c2)c(OC)c1 [Compound 37] | < 800 nM | – |
| CCOc1cccc(-c2ccc(NC(=O)C3=C(C(=O)O)CCC3)c(OC)c2)c1 [Compound 38] | < 800 nM | – |
| COc1cccc(-c2ccc(NC(=O)C3=C(C(=O)O)CCC3)c(OC)c2)c1 [Compound 39] | < 800 nM | – |
| O=C(O)C1=C(C(=O)Nc2ccc(-c3ccccc3Cl)cc2)CSC1 [Compound 41] | < 800 nM | IC50 (DHODH; [2]): > 1500 nM |
| Cc1cccc(Sc2ccc(NC(=O)C3=C(C(=O)O)CCC3)cc2)c1 [Compound 42] | < 800 nM | IC50 (DHODH; [2]): < 800 nM |
| O=C(O)C1=C(C(=O)Nc2ccc(-c3cccc(OC(F)(F)F)c3)cc2)CCC1 [Compound 43] | < 800 nM | – |
| O=C(O)C1=C(C(=O)Nc2ccc(-c3cc4ccccc4s3)cc2)CCC1 [Compound 44] | < 800 nM | – |
| O=C(O)C1=C(C(=O)Nc2ccc(-c3cc4ccccc4s3)cc2F)CCC1 [Compound 45] | < 800 nM | – |
| CCOc1cccc(-c2ccc(NC(=O)C3=C(C(=O)O)CCC3)c(F)c2)c1 [Compound 46] | < 800 nM | IC50 (DHODH; [2]): > 1500 nM |
| COc1cc(-c2ccc(NC(=O)C3=C(C(=O)O)CCC3)c(OC)c2)ccc1NC(=O)C1=C(C(=O)O)CCC1 [Compound 48] | > 1500 nM | – |
| O=C(O)C1=C(C(=O)Nc2ccc(-c3ccccc3)cc2)CS(=O)(=O)C1 [Compound 49] | > 1500 nM | – |
| O=C(O)C1=C(C(=O)Nc2ccc(Oc3ccccc3)cc2)CCC1 [Compound 50] | < 800 nM | IC50 (DHODH; [2]): < 800 nM |
| O=C(O)C1=C(C(=O)Nc2ccc(Oc3ccccc3)cc2)COC1 [Compound 51] | > 1500 nM | – |

| SMILES | IC50 (recombinant human DHODH; [3]) | further results |
| --- | --- | --- |
| COc1ccccc1-c1ccc(NC(=O)C2=C(C(=O)O)CCC2)c(Cl)c1 [Compound 53] | < 800 nM | IC50 (DHODH; [2]): 800 to 1500 nM |
| COc1ccccc1-c1ccc(NC(=O)C2=C(C(=O)O)CCC2)cc1Cl [Compound 54] | < 800 nM | IC50 (DHODH; [2]): < 800 nM |
| COc1ccccc1-c1ccc(NC(=O)C2=C(C(=O)O)CCC2)c(C(F)(F)F)c1 [Compound 55] | > 1500 nM | – |
| COc1ccccc1-c1c(F)c(F)c(NC(=O)C2=C(C(=O)O)CCC2)c(F)c1F [Compound 56] | – | IC50 (DHODH): < 800 nM; IC50 (recombinant human DHODH): < 800 nM |
| COc1ccccc1-c1ccc(NC(=O)C2=C(C(=O)O)CCC2)c(C)c1 [Compound 57] | < 800 nM | IC50 (DHODH; [2]): 800 to 1500 nM |
| COc1ccccc1-c1cc(Cl)c(NC(=O)C2=C(C(=O)O)CCC2)c(Cl)c1 [Compound 58] | < 800 nM | IC50 (DHODH; [2]): 800 to 1500 nM |
| COc1ccc(Oc2ccc(C(F)(F)F)cc2NC(=O)C2=C(C(=O)O)CCC2)cc1 [Compound 59] | > 1500 nM | – |
| O=C(O)C1=C(C(=O)Nc2ccc(Oc3ccc(F)cc3F)cc2)CCC1 [Compound 60] | 800 to 1500 nM | – |
| O=C(O)C1=C(C(=O)Nc2ccc(Oc3ccc(Cl)cc3)cc2)CCC1 [Compound 61] | > 1500 nM | – |
| CCOc1ccccc1-c1cc(F)c(NC(=O)C2=C(C(=O)O)CCC2)c(F)c1 [Compound 62] | < 800 nM | IC50 (DHODH; [2]): < 800 nM |
| O=C(O)C1=C(C(=O)Nc2c(F)cc(-c3cccc(OC(F)(F)F)c3)cc2F)CCC1 [Compound 64] | < 800 nM | – |
| O=C(O)C1=C(C(=O)Nc2c(F)cc(-c3ccccc3Cl)cc2F)CCC1 [Compound 65] | < 800 nM | – |
| O=C(O)C1=C(C(=O)Nc2c(F)cc(-c3ccccc3F)cc2F)CCC1 [Compound 66] | < 800 nM | – |
| COc1ccc(-c2cc(F)c(NC(=O)C3=C(C(=O)O)CCC3)c(F)c2)c(OC)c1 [Compound 67] | < 800 nM | – |
| O=C(O)C1=C(C(=O)NCCCCc2ccccc2)CCC1 [Compound 70] | > 1500 nM | – |
| O=C(O)C1=C(C(=O)NC2CC2c2ccccc2)CCC1 (stereo not drawn) [Compound 71] | > 1500 nM | – |
| O=C(O)C1=C(C(=O)Nc2ccc(OCc3ccccc3)c(Cl)c2)CCC1 [Compound 72] | < 800 nM | – |
| CN(C(=O)C1=C(C(=O)O)CCC1)c1ccc(-c2ccccc2)cc1 [Compound 73] | > 1500 nM | – |
| O=C(O)C1=C(C(=O)Nc2ccc(OCc3ccccc3F)c(Cl)c2)CCC1 [Compound 74] | < 800 nM | – |
| O=C(O)C1=C(C(=O)Oc2ccc(-c3ccccc3)cc2)CCC1 [Compound 75] | > 1500 nM | – |
